Reference: the NIST ThermoML archive (doi:10.1016/j.jct.2013.02.017)

Experiment: molar heat capacity at constant pressure
Details: 101.33 kPa, relaxation calorimetry - Quantum Design PPMS

O=P([O-])([O-])[O-].[Fe+3] [iron(III) phosphate]
molar heat capacity at constant pressure [J/K/mol]
Details	Crystal 1	Crystal 2
1 K	–	0.003782
1.886 K	–	0.04093
1.997 K	–	0.04782
2.181 K	–	0.0617
2.476 K	–	0.09126
2.736 K	–	0.127
3 K	–	0.18
3.028 K	–	0.1804
3.36 K	–	0.2601
3.752 K	–	0.3807
4 K	–	0.4766
4.187 K	–	0.5478
4.659 K	–	0.7673
4.845 K	–	0.8619
5 K	–	0.9387
5.18 K	–	1.047
5.77 K	–	1.391
6 K	–	1.539
6.414 K	–	1.814
6.798 K	–	2.084
7 K	–	2.22
7.132 K	–	2.309
7.933 K	–	2.865
8 K	–	2.913
8.77 K	–	3.466
8.832 K	–	3.516
9 K	–	3.635
10 K	–	4.367
10.05 K	–	4.403
11 K	–	5.121
11.15 K	–	5.235
12 K	–	5.897
12.38 K	–	6.189
12.94 K	–	6.616
13 K	–	6.67
13.73 K	–	7.26
14 K	–	7.443
14.43 K	–	7.762
14.95 K	–	8.294
15 K	–	8.323
15.43 K	–	8.719
15.94 K	–	9.181
16 K	–	9.243
16.43 K	–	9.674
16.95 K	–	10.23
17 K	–	10.28
17.45 K	–	10.8
17.84 K	–	11.2
18 K	–	11.49
18.13 K	–	11.71
18.45 K	–	12.08
18.82 K	–	12.45
19 K	–	12.58
19.22 K	–	12.73
19.66 K	–	13.2
19.99 K	–	13.49
20 K	–	13.57
20.25 K	–	13.97
20.64 K	–	14.43
20.82 K	–	14.73
21.1 K	–	15.1
21.5 K	–	15.55
21.71 K	–	16.04
21.92 K	–	16.34
22.11 K	–	16.68
22.32 K	–	17.08
22.51 K	–	17.48
22.73 K	–	17.86
22.92 K	–	18.38
23.11 K	–	18.7
23.36 K	–	19.34
23.55 K	–	19.72
23.76 K	–	20.25
23.95 K	–	20.84
24.15 K	–	21.42
24.38 K	–	21.93
24.61 K	–	22.61
24.87 K	–	23.08
25 K	23.11	23.11
25.08 K	23.28	–
25.18 K	22.8	–
25.4 K	21.44	–
25.43 K	20.48	–
25.62 K	18.26	–
25.68 K	17.59	–
25.72 K	17.26	–
25.94 K	15.76	–
25.99 K	15.49	–
26.15 K	14.92	–
26.41 K	14.37	–
